Several values for one entry are separate records, joined by “and”; a condition that tells them apart may be missing. Equal entries are not always repeated. Where two headings read alike, the source gives them in different places. Each block holds one compound with its values, some of them ahead of it.
What was measured:
[1] = Mouse Liver Microsome stability assay; assay type: in vitro ADME; settings: mouse liver microsomes
[2] = Pharmacokinetic study, IV administration in male CD-1 mice; assay type: in vivo; settings: for AUCExtra / AUC0-inf / AUC0-last / AUCall / C0 / Cl / MRT0-last / T½ / Vd / AUC / AUC(0-t) / clearance / concentration at 0.08 h / concentration at 0.25 h / concentration at 1 h / concentration at 3 h / concentration at 5 h / concentration at 8 h / concentration at 24 h / MRT last / half-life: plasma; for half-life: read-out: T½ (converted)
[3] = Pharmacokinetic study, IP administration in male CD-1 mice; assay type: in vivo
[4] = IV 2.0 mg/kg, individual mice M1-M3, 2 mg/kg
[5] = male, CD-1, mouse, iv, 2 mg/kg, Mean
[6] = male, CD-1, mouse, iv, 2 mg/kg, Mean, read-out: AUC0-inf
[7] = male, CD-1, mouse, iv, 2 mg/kg, Mean, read-out: C0
[8] = male, CD-1, mouse, iv, 2 mg/kg, Mean, read-out: MRT0-last
[9] = male, CD-1, mouse, iv, 2 mg/kg, Mean, read-out: Vd
[10] = male, CD-1, mouse, iv, 2 mg/kg, individual mice M1-M3
[11] = male, CD-1, mouse, iv, 2 mg/kg, individual mice M1-M3, read-out: C0
[12] = male, CD-1, mouse, iv, 2 mg/kg, individual mice M1-M3, read-out: MRT0-last
[13] = male, CD-1, mouse, iv, 2 mg/kg, individual mice M1-M3, read-out: Vd
[14] = IP 2.0 mg/kg, individual mice M1-M3
[15] = IP 2.0 mg/kg, individual mice M1-M3, 2 mg/kg
[16] = IP 2.0 mg/kg, plasma, individual mice M1-M3, 2 mg/kg
[17] = male, CD-1, mouse, plasma, ip, 2 mg/kg, Mean
[18] = male, CD-1, mouse, plasma, ip, 2 mg/kg, Mean, read-out: AUC0-inf
[19] = male, CD-1, mouse, plasma, ip, 2 mg/kg, Mean, read-out: Cmax
[20] = male, CD-1, mouse, plasma, ip, 2 mg/kg, Mean, read-out: MRT0-last
[21] = male, CD-1, mouse, plasma, ip, 2 mg/kg, individual mice M1-M3
[22] = male, CD-1, mouse, plasma, ip, 2 mg/kg, individual mice M1-M3, read-out: AUC0-inf
[23] = male, CD-1, mouse, plasma, ip, 2 mg/kg, individual mice M1-M3, read-out: Cmax
[24] = male, CD-1, mouse, IP 2.0 mg/kg, plasma, individual mice M1-M3

WuXi Microsomal stability (Mouse Extraction Ratio) [1]: <0.3
Plasma Concentration at 0.08 h [2, 4]: 53.28 ng/mL and 64.54 ng/mL
Plasma Concentration at 0.25 h [2, 4]: 29.14 ng/mL and 34.06 ng/mL
Plasma Concentration at 1.00 h [2, 4]: 22.71 ng/mL and 12.93 ng/mL
Plasma Concentration at 3.00 h [2, 4]: 11.36 ng/mL and 8.08 ng/mL
Plasma Concentration at 5.00 h [2, 4]: 7.57 ng/mL and 6.55 ng/mL
Plasma Concentration at 8.00 h [2, 4]: 7.32 ng/mL and 9.38 ng/mL
Plasma Concentration at 24.00 h [2, 4]: 5.33 ng/mL and 3.54 ng/mL
AUCExtra ([2]; IV 2.0 mg/kg, Mean): 46.09%
AUC0-last [2, 4]: 205.32 ng·h/mL and 185.37 ng·h/mL
AUCExtra [2, 4]: 94.18% and 57.85% and 34.33%
AUCall [2, 4]: 205.32 ng·h/mL and 185.37 ng·h/mL
C0 [2, 4]: 71.91 ng/mL and 88.67 ng/mL
MRT0-last [2, 4]: 542 min
T½ [2, 4]: 302.57 h and 36.64 h and 18.98 h
Vd [2, 4]: 217.05 L/kg and 193.96 L/kg
AUC [2, 5]: 191 ng·h/mL
AUC(0-t) [2, 5]: 191 ng·h/mL
clearance [2, 5]: 93.3 mL/min/kg
concentration at 0.08 h [2, 5]: 58.9 ng/mL
concentration at 0.25 h [2, 5]: 31.6 ng/mL
concentration at 1 h [2, 5]: 17.8 ng/mL
concentration at 3 h [2, 5]: 9.72 ng/mL
concentration at 5 h [2, 5]: 7.06 ng/mL
concentration at 8 h [2, 5]: 8.35 ng/mL
concentration at 24 h [2, 5]: 4.44 ng/mL
AUC0-inf [2, 6]: 385 ng·h/mL
C0 [2, 7]: 77.7 ng/mL
MRT last [2, 8]: 568 min
half-life [2, 5]: 1670 min
Vd [2, 9]: 206 L/kg
AUC [2, 10]: 183 ng·h/mL
AUC(0-t) [2, 10]: 183 ng·h/mL
concentration at 0.08 h [2, 10]: 55.1 ng/mL
concentration at 0.25 h [2, 10]: 31.9 ng/mL
concentration at 1 h [2, 10]: 12.3 ng/mL
concentration at 3 h [2, 10]: 6.96 ng/mL
concentration at 5 h [2, 10]: 7.32 ng/mL
concentration at 8 h [2, 10]: 6.02 ng/mL
concentration at 24 h [2, 10]: 6.79 ng/mL
C0 [2, 11]: 72.4 ng/mL
MRT last [2, 12]: 618 min
Vd [2, 13]: 277 L/kg
Plasma Concentration at 5.00 h ([3]; IP 2.0 mg/kg, Mean): BLQ
Plasma Concentration at 8.00 h ([3]; IP 2.0 mg/kg, Mean): BLQ
Plasma Concentration at 24.00 h ([3]; IP 2.0 mg/kg, Mean): BLQ
Plasma Concentration at 5.00 h [3, 14]: BLQ
Plasma Concentration at 8.00 h [3, 14]: BLQ
Plasma Concentration at 24.00 h [3, 14]: BLQ
Plasma Concentration at 0.25 h [3, 15]: 189.54 ng/mL and 198.56 ng/mL
Plasma Concentration at 1.00 h [3, 15]: 69.73 ng/mL and 76.68 ng/mL
Plasma Concentration at 3.00 h [3, 15]: 4.17 ng/mL and 2.33 ng/mL
AUCExtra ([3]; IP 2.0 mg/kg, plasma, Mean): 1.11%
AUC0-inf [3, 16]: 163.10 ng·h/mL and 164.87 ng·h/mL
AUC0-last [3, 16]: 160.10 ng·h/mL and 163.46 ng·h/mL
AUCExtra [3, 16]: 0.63% and 1.84% and 0.86%
AUCall [3, 16]: 160.10 ng·h/mL and 163.46 ng·h/mL
Cmax [3, 16]: 189.54 ng/mL and 198.56 ng/mL
Half-life (T½) [3, 16]: 30 min and 25.2 min
MRT0-last [3, 16]: 48.6 min
AUC [3, 17]: 175 ng·h/mL
AUC(0-t) [3, 17]: 175 ng·h/mL
concentration at 0.25 h [3, 17]: 210 ng/mL
concentration at 1 h [3, 17]: 82.3 ng/mL
concentration at 3 h [3, 17]: 2.92 ng/mL
AUC0-inf [3, 18]: 177 ng·h/mL
Cmax [3, 19]: 210 ng/mL
MRT last [3, 20]: 46.8 min
Half-life (T½) ([3]; male, CD-1, mouse, plasma, ip, 2 mg/kg, Mean, read-out: Oral T½ (converted)): 26.4 min
AUC [3, 21]: 203 ng·h/mL
AUC(0-t) [3, 21]: 203 ng·h/mL
concentration at 0.25 h [3, 21]: 242 ng/mL
concentration at 1 h [3, 21]: 101 ng/mL
concentration at 3 h [3, 21]: 2.25 ng/mL
AUC0-inf [3, 22]: 204 ng·h/mL
Cmax [3, 23]: 242 ng/mL
MRT last ([3]; male, CD-1, mouse, plasma, ip, 2 mg/kg, individual mice M1-M3, read-out: MRT0-last): 45.6 min
Half-life (T½) ([3]; male, CD-1, mouse, plasma, ip, 2 mg/kg, individual mice M1-M3, read-out: Oral T½ (converted)): 24 min
Tmax [3, 24]: 15 min
SMILES: COc1ccc(-c2cccc(F)c2)cc1Nc1ncnc2[nH]nc(-c3cc[nH]n3)c12 [8168B]
AUC0-inf [2, 4]: 3147.06 ng·h/mL and 487.06 ng·h/mL and 282.28 ng·h/mL
Cl [2, 4]: 10.59 mL/min/kg and 68.44 mL/min/kg and 118.09 mL/min/kg

WuXi Microsomal stability (Mouse Extraction Ratio) [1]: 0.4
Plasma Concentration at 24.00 h ([2]; IV 2.0 mg/kg, Mean): BLQ
Plasma Concentration at 24.00 h ([2]; IV 2.0 mg/kg, individual mice M1-M3): BLQ
Plasma Concentration at 0.08 h [2, 4]: 643.79 ng/mL and 668.53 ng/mL
Plasma Concentration at 0.25 h [2, 4]: 361.85 ng/mL and 533.91 ng/mL
Plasma Concentration at 1.00 h [2, 4]: 124.19 ng/mL and 132.77 ng/mL
Plasma Concentration at 3.00 h [2, 4]: 16.88 ng/mL and 24.59 ng/mL
Plasma Concentration at 5.00 h [2, 4]: 4.53 ng/mL and 8.17 ng/mL and 9.69 ng/mL
Plasma Concentration at 8.00 h [2, 4]: 1.79 ng/mL and BLQ and 4.14 ng/mL
AUCExtra ([2]; IV 2.0 mg/kg, Mean): 1.68%
AUC0-inf [2, 4]: 451.15 ng·h/mL and 566.58 ng·h/mL
AUC0-last [2, 4]: 441.82 ng·h/mL and 554.77 ng·h/mL
AUCExtra [2, 4]: 0.88% and 2.07% and 2.08%
AUCall [2, 4]: 441.82 ng·h/mL and 554.77 ng·h/mL
C0 [2, 4]: 857.24 ng/mL and 747.58 ng/mL
Cl [2, 4]: 73.89 mL/min/kg and 58.83 mL/min/kg
MRT0-last [2, 4]: 52.2 min and 65.4 min
T½ [2, 4]: 1.70 h and 0.79 h and 1.98 h
Vd [2, 4]: 5.06 L/kg and 10.07 L/kg
AUC [2, 5]: 497 ng·h/mL
AUC(0-t) [2, 5]: 497 ng·h/mL
clearance [2, 5]: 66.5 mL/min/kg
concentration at 0.08 h [2, 5]: 638 ng/mL
concentration at 0.25 h [2, 5]: 426 ng/mL
concentration at 1 h [2, 5]: 146 ng/mL
concentration at 3 h [2, 5]: 18.6 ng/mL
concentration at 5 h [2, 5]: 7.46 ng/mL
concentration at 8 h [2, 5]: 2.97 ng/mL
AUC0-inf [2, 6]: 506 ng·h/mL
C0 [2, 7]: 786 ng/mL
MRT last [2, 8]: 57.6 min
half-life [2, 5]: 89.4 min
Vd [2, 9]: 8.32 L/kg
AUC [2, 10]: 496 ng·h/mL
AUC(0-t) [2, 10]: 496 ng·h/mL
clearance [2, 10]: 66.7 mL/min/kg
concentration at 0.08 h [2, 10]: 601 ng/mL
concentration at 0.25 h [2, 10]: 382 ng/mL
concentration at 1 h [2, 10]: 181 ng/mL
concentration at 3 h [2, 10]: 14.3 ng/mL
AUC0-inf ([2]; male, CD-1, mouse, iv, 2 mg/kg, individual mice M1-M3, read-out: AUC0-inf): 500 ng·h/mL
C0 [2, 11]: 754 ng/mL
MRT last [2, 12]: 56.4 min
Vd [2, 13]: 9.82 L/kg
Plasma Concentration at 5.00 h ([3]; IP 2.0 mg/kg, Mean): BLQ
Plasma Concentration at 8.00 h ([3]; IP 2.0 mg/kg, Mean): BLQ
Plasma Concentration at 24.00 h ([3]; IP 2.0 mg/kg, Mean): BLQ
Plasma Concentration at 8.00 h [3, 14]: BLQ
Plasma Concentration at 24.00 h [3, 14]: BLQ
Plasma Concentration at 0.25 h [3, 15]: 306.24 ng/mL and 169.92 ng/mL
Plasma Concentration at 1.00 h [3, 15]: 69.88 ng/mL and 66.74 ng/mL
Plasma Concentration at 3.00 h [3, 15]: 9.75 ng/mL and 2.05 ng/mL and BLQ
Plasma Concentration at 5.00 h [3, 15]: BLQ
AUCExtra ([3]; IP 2.0 mg/kg, plasma, Mean): 0.96%
AUC0-inf [3, 16]: 197.83 ng·h/mL
AUCExtra [3, 16]: 1.35% and 0.57%
Cmax [3, 16]: 306.24 ng/mL and 169.92 ng/mL
Half-life (T½) [3, 16]: 47.4 min and 22.8 min
MRT0-last [3, 16]: 63.6 min and 40.2 min and 30 min
Half-life (T½) ([3]; male, CD-1, mouse, plasma, intraperitoneal, 2 mg/kg, IP 2.0 mg/kg, Mean, read-out: Oral T½ (converted)): 35.4 min
AUC [3, 17]: 170 ng·h/mL
AUC(0-t) [3, 17]: 170 ng·h/mL
concentration at 0.25 h [3, 17]: 228 ng/mL
concentration at 1 h [3, 17]: 73.9 ng/mL
concentration at 3 h [3, 17]: 5.9 ng/mL
AUC0-inf [3, 18]: 205 ng·h/mL
Cmax [3, 19]: 228 ng/mL
MRT last [3, 20]: 44.4 min
concentration at 0.25 h [3, 21]: 207 ng/mL
concentration at 1 h [3, 21]: 85.2 ng/mL
concentration at 5 h [3, 21]: 2.52 ng/mL
AUC0-inf [3, 22]: 212 ng·h/mL
Cmax [3, 23]: 207 ng/mL
Tmax [3, 24]: 15 min
SMILES: COc1ccc(-c2ccc(F)cc2)cc1Nc1ncnc2[nH]nc(-c3cc[nH]n3)c12 [8168C]
AUC0-last [3, 16]: 208.92 ng·h/mL and 196.69 ng·h/mL and 104.05 ng·h/mL
AUCall [3, 16]: 208.92 ng·h/mL and 196.69 ng·h/mL and 104.05 ng·h/mL

WuXi Microsomal stability (Mouse Extraction Ratio) [1]: 0.9
SMILES: CN(C)c1ccc(-c2ccccc2)cc1Nc1ncnc2[nH]nc(-c3cc[nH]n3)c12 [compound 8164]

WuXi Microsomal stability (Mouse Extraction Ratio) [1]: 0.8
SMILES: COc1ncc(-c2ccccc2)cc1Nc1ncnc2[nH]nc(-c3cc[nH]n3)c12 [compound 8177]
